From publication PMC8942523, “The three-tails approach as a new strategy to improve selectivity of action of sulphonamide inhibitors against tumour-associated carbonic anhydrase IX and XII” (Journal of Enzyme Inhibition and Medicinal Chemistry, 2022)

Target: T1, hCA IX (Homo sapiens, UniProt Q16790)
T1 construct: gene CA9
Test: stopped-flow CO2 hydration
Format: biochemical
Description: stopped-flow CO2 hydration on hCA IX

Row | Ki | SMILES
1 | 30.6 nM | CCN(CC)CC(=O)N(CCc1ccc(S(N)(=O)=O)cc1)Cc1ccccc1 [compound 18, 18]
2 | 119 nM | CCN(CC(=O)N(CCc1ccc(S(N)(=O)=O)cc1)Cc1ccccc1)Cc1ccccc1 [compound 19, 19]
3 | 234 nM | NS(=O)(=O)c1ccc(CCN(Cc2ccccc2)C(=O)CN(Cc2ccccc2)Cc2ccccc2)cc1 [compound 20, 20]
4 | 48.5 nM | CCCCCN(CCCCC)CC(=O)N(CCc1ccc(S(N)(=O)=O)cc1)Cc1ccccc1 [compound 21, 21]
5 | 123 nM | CCCCCCN(CCCCCC)CC(=O)N(CCc1ccc(S(N)(=O)=O)cc1)Cc1ccccc1 [compound 22, 22]
6 | 271 nM | CCCCCCCCN(CCCCCCCC)CC(=O)N(CCc1ccc(S(N)(=O)=O)cc1)Cc1ccccc1 [compound 23, 23]
7 | 31.1 nM | CCN(CC)CCC(=O)N(CCc1ccc(S(N)(=O)=O)cc1)Cc1ccccc1 [compound 24, 24]
8 | 166 nM | CCN(CCC(=O)N(CCc1ccc(S(N)(=O)=O)cc1)Cc1ccccc1)Cc1ccccc1 [compound 25, 25]
9 | 106 nM | NS(=O)(=O)c1ccc(CCN(Cc2ccccc2)C(=O)CCN(Cc2ccccc2)Cc2ccccc2)cc1 [compound 26, 26]
10 | 134 nM | CCCCCN(CCCCC)CCC(=O)N(CCc1ccc(S(N)(=O)=O)cc1)Cc1ccccc1 [compound 27, 27]
11 | 94.2 nM | CCCCCCN(CCCCCC)CCC(=O)N(CCc1ccc(S(N)(=O)=O)cc1)Cc1ccccc1 [compound 28, 28]
12 | 147 nM | CCCCCCCCN(CCCCCCCC)CCC(=O)N(CCc1ccc(S(N)(=O)=O)cc1)Cc1ccccc1 [compound 29, 29]
13 | 42.9 nM | CCCCCCN(CCCCCC)CCC(=O)N(CCc1ccccc1)CCc1ccc(S(N)(=O)=O)cc1 [compound 30, 30]
14 | 296 nM | CCCCCCN(CCCCCC)CC(=O)N(CCc1ccc(S(N)(=O)=O)cc1)Cc1ccc2ccccc2c1 [compound 32, 32]
15 | 154 nM | CCCCCCN(CCCCCC)CC(=O)N(CCC#N)CCc1ccc(S(N)(=O)=O)cc1 [compound 33, 33]
16 | 32.3 nM | N#CCCN(CCc1ccccc1)CC(=O)N(CCc1ccccc1)CCc1ccc(S(N)(=O)=O)cc1 [compound 34, 34]

Row | Ki | SMILES
17 | 95.1 nM | N#CCCN(CCc1ccccc1)CC(=O)N(CCc1ccc(S(N)(=O)=O)cc1)Cc1ccco1 [compound 35, 35]
18 | 3 nM | N#CCCN(CCc1ccccc1)CC(=O)N(CCc1ccc(S(N)(=O)=O)cc1)Cc1ccc(F)cc1 [compound 36, 36]
19 | 151 nM | N#CCCN(CCc1ccccc1)CC(=O)N(CCc1ccc(S(N)(=O)=O)cc1)Cc1ccc2ccccc2c1 [compound 37, 37]
20 | 202 nM | N#CCCN(CCc1ccccc1)CC(=O)N(CCc1ccc(S(N)(=O)=O)cc1)Cc1ccc([N+](=O)[O-])cc1 [compound 38, 38]
21 | 19.3 nM | N#CCCN(CCc1ccccc1)CC(=O)N(CCC#N)CCc1ccc(S(N)(=O)=O)cc1 [compound 39, 39]
22 | 4 nM | NCCCN(CCc1ccccc1)CC(=O)N(CCc1ccccc1)CCc1ccc(S(N)(=O)=O)cc1 [compound 40, 40]
23 | 11.1 nM | NCCCN(CCc1ccccc1)CC(=O)N(CCc1ccc(S(N)(=O)=O)cc1)Cc1ccco1 [compound 41, 41]
24 | 4.8 nM | NCCCN(CCc1ccccc1)CC(=O)N(CCc1ccc(S(N)(=O)=O)cc1)Cc1ccc(F)cc1 [compound 42, 42]
25 | 34.3 nM | NCCCN(CCc1ccccc1)CC(=O)N(CCc1ccc(S(N)(=O)=O)cc1)Cc1ccc2ccccc2c1 [compound 43, 43]
26 | 116 nM | CCCCCCN(CCCCCC)CC(=O)N(CCCN)CCc1ccc(S(N)(=O)=O)cc1 [compound 44, 44]
27 | 7.5 nM | NS(=O)(=O)c1ccc(CCN(CCc2ccccc2)C(=O)CN(CCC(=O)O)CCc2ccccc2)cc1 [compound 45, 45]
28 | 1.2 nM | NS(=O)(=O)c1ccc(CCN(Cc2ccco2)C(=O)CN(CCC(=O)O)CCc2ccccc2)cc1 [compound 46, 46]
29 | 11.1 nM | NS(=O)(=O)c1ccc(CCN(Cc2ccc(F)cc2)C(=O)CN(CCC(=O)O)CCc2ccccc2)cc1 [compound 47, 47]
30 | 22.1 nM | NS(=O)(=O)c1ccc(CCN(Cc2ccc3ccccc3c2)C(=O)CN(CCC(=O)O)CCc2ccccc2)cc1 [compound 48, 48]
31 | 68.3 nM | CCCCCCN(CCCCCC)CC(=O)N(CCC(=O)O)CCc1ccc(S(N)(=O)=O)cc1 [compound 49, 49]
32 | 61.1 nM | CCCCCCCC/C=C\CCCCCCCCNC(=O)CCN(CCc1ccccc1)CC(=O)N(CCc1ccc(S(N)(=O)=O)cc1)Cc1ccco1 [compound 50, 50]
